Patent US20250122219A1 (priority 2023, published 2025)

What was measured:
HIV-1 (IIIB) = assay: Antiviral assay in MT-4 cells; assay type: cell-based; details: Human immunodeficiency virus 1, MT4, 120 h; HIV-1 IIIB in MT-4 cells, 5 days incubation, Cell Titer Glo; read-out: MT4 EC50
How it was run: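 HIV-1 IIIB-infected MT-4 cells (fresh 1:250 virus stock dilution; mock-infected controls) incubated 5 days at 37 °C with serially diluted compounds in RPMI/10% FBS; 5 μM AZT as positive control. Cell viability read by CellTiter-Glo luminescence as measure of protection from viral replication.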

[1] = Cytotoxicity assay in MT-4 cells; assay type: cell-based; details: human; uninfected MT-4 cells, 5 days incubation, Cell Titer Glo; read-out: MT4 CC50
How it was run: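 Uninfected MT-4 cells exposed to serially diluted compounds in RPMI with 10% FBS for 5 days at 37 °C. Viability by Cell Titer Glo chemiluminescence. Puromycin […] as baseline cytotoxicity control.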

SMILES | EC50 (HIV-1 (IIIB)) [nM] | CC50 at 5 days [1] [nM]
CCCCOC(=O)Oc1c2n(cc(C(=O)NCc3ccc(F)cc3F)c1=O)[C@@H]1CN(C2=O)[C@@H](C)CC[C@]12CC(OC)=NO2 [Example 128, butyl ((3′S,5S,7′R)-10′-((2,4-difluorobenzyl)carbamoyl)-3-methoxy-3′-methyl-1′,11′-dioxo-1′,4′,5′,11′-tetrahydro-3′H,4H,7′H-spiro[isoxazole-5,6′-[2,7]methanopyrido[1,2-a][1,4]diazonin]-12′-yl) carbonate] | 0.21 | 19300
CCCCCOC(=O)Oc1c2n(cc(C(=O)NCc3ccc(F)cc3F)c1=O)[C@@H]1CN(C2=O)[C@@H](C)CC[C@]12CC(C)=NO2 [Example 129, (3′S,5S,7′R)-10′-((2,4-difluorobenzyl)carbamoyl)-3,3′-dimethyl-1′,11′-dioxo-1′,4′,5′,11′-tetrahydro-3′H,4H,7′H-spiro[isoxazole-5,6′-[2,7]methanopyrido[1,2-a][1,4]diazonin]-12′-yl pentyl carbonate] | 1.78 | 21700
CCCCCOC(=O)Oc1c2n(cc(C(=O)NCc3ccc(F)cc3F)c1=O)[C@@H]1CN(C2=O)[C@@H](C)CC[C@]12CC(OC)=NO2 [Example 130, (3′S,5S,7′R)-10′-((2,4-difluorobenzyl)carbamoyl)-3-methoxy-3′-methyl-1′,11′-dioxo-1′,4′,5′,11′-tetrahydro-3′H,4H,7′H-spiro[isoxazole-5,6′-[2,7]methanopyrido[1,2-a][1,4]diazonin]-12′-yl pentyl carbonate] | 1.83 | 31700
CCCCCCOC(=O)Oc1c2n(cc(C(=O)NCc3ccc(F)cc3F)c1=O)[C@@H]1CN(C2=O)[C@@H](C)CC[C@]12CC(C)=NO2 [Example 131, (3′S,5S,7′R)-10′-((2,4-difluorobenzyl)carbamoyl)-3,3′-dimethyl-1′,11′-dioxo-1′,4′,5′,11′-tetrahydro-3′H,4H,7′H-spiro[isoxazole-5,6′-[2,7]methanopyrido[1,2-a][1,4]diazonin]-12′-yl hexyl carbonate] | 0.136 | 19800
CCCCCCOC(=O)Oc1c2n(cc(C(=O)NCc3ccc(F)cc3F)c1=O)[C@@H]1CN(C2=O)[C@@H](C)CC[C@]12CC(OC)=NO2 [Example 132, (3′S,5S,7′R)-10′-((2,4-difluorobenzyl)carbamoyl)-3-methoxy-3′-methyl-1′,11′-dioxo-1′,4′,5′,11′-tetrahydro-3′H,4H,7′H-spiro[isoxazole-5,6′-[2,7]methanopyrido[1,2-a][1,4]diazonin]-12′-yl hexyl carbonate] | 0.153 | 17800
CCCCCCCOC(=O)Oc1c2n(cc(C(=O)NCc3ccc(F)cc3F)c1=O)[C@@H]1CN(C2=O)[C@@H](C)CC[C@]12CC(C)=NO2 [Example 133, (3′S,5S,7′R)-10′-((2,4-difluorobenzyl)carbamoyl)-3,3′-dimethyl-1′,11′-dioxo-1′,4′,5′,11′-tetrahydro-3′H,4H,7′H-spiro[isoxazole-5,6′-[2,7]methanopyrido[1,2-a][1,4]diazonin]-12′-yl heptyl carbonate] | 0.819 | 16700
CCCCCCCOC(=O)Oc1c2n(cc(C(=O)NCc3ccc(F)cc3F)c1=O)[C@@H]1CN(C2=O)[C@@H](C)CC[C@]12CC(OC)=NO2 [Example 134, (3′S,5S,7′R)-10′-((2,4-difluorobenzyl)carbamoyl)-3-methoxy-3′-methyl-1′,11′-dioxo-1′,4′,5′,11′-tetrahydro-3′H,4H,7′H-spiro[isoxazole-5,6′-[2,7]methanopyrido[1,2-a][1,4]diazonin]-12′-yl heptyl carbonate] | 0.516 | 25700
CCCCCCCCOC(=O)Oc1c2n(cc(C(=O)NCc3ccc(F)cc3F)c1=O)[C@@H]1CN(C2=O)[C@@H](C)CC[C@]12CC(C)=NO2 [Example 135, (3′S,5S,7′R)-10′-((2,4-difluorobenzyl)carbamoyl)-3,3′-dimethyl-1′,11′-dioxo-1′,4′,5′,11′-tetrahydro-3′H,4H,7′H-spiro[isoxazole-5,6′-[2,7]methanopyrido[1,2-a][1,4]diazonin]-12′-yl octyl carbonate] | 0.409 | 14200
CCCCCCCCOC(=O)Oc1c2n(cc(C(=O)NCc3ccc(F)cc3F)c1=O)[C@@H]1CN(C2=O)[C@@H](C)CC[C@]12CC(OC)=NO2 [Example 136, (3′S,5S,7′R)-10′-((2,4-difluorobenzyl)carbamoyl)-3-methoxy-3′-methyl-1′,11′-dioxo-1′,4′,5′,11′-tetrahydro-3′H,4H,7′H-spiro[isoxazole-5,6′-[2,7]methanopyrido[1,2-a][1,4]diazonin]-12′-yl octyl carbonate] | 0.496 | 23500
CCCCCCCCCOC(=O)Oc1c2n(cc(C(=O)NCc3ccc(F)cc3F)c1=O)[C@@H]1CN(C2=O)[C@@H](C)CC[C@]12CC(C)=NO2 [Example 137, (3′S,5S,7′R)-10′-((2,4-difluorobenzyl)carbamoyl)-3,3′-dimethyl-1′,11′-dioxo-1′,4′,5′,11′-tetrahydro-3′H,4H,7′H-spiro[isoxazole-5,6′-[2,7]methanopyrido[1,2-a][1,4]diazonin]-12′-yl nonyl carbonate] | 2.07 | 10200
CCCCCCCCCOC(=O)Oc1c2n(cc(C(=O)NCc3ccc(F)cc3F)c1=O)[C@@H]1CN(C2=O)[C@@H](C)CC[C@]12CC(OC)=NO2 [Example 138, (3′S,5S,7′R)-10′-((2,4-difluorobenzyl)carbamoyl)-3-methoxy-3′-methyl-1′,11′-dioxo-1′,4′,5′,11′-tetrahydro-3′H,4H,7′H-spiro[isoxazole-5,6′-[2,7]methanopyrido[1,2-a][1,4]diazonin]-12′-yl nonyl carbonate] | 2.14 | 14100
CCCCCCCCCCOC(=O)Oc1c2n(cc(C(=O)NCc3ccc(F)cc3F)c1=O)[C@@H]1CN(C2=O)[C@@H](C)CC[C@]12CC(C)=NO2 [Example 139, decyl ((3′S,5S,7′R)-10′-((2,4-difluorobenzyl)carbamoyl)-3,3′-dimethyl-1′,11′-dioxo-1′,4′,5′,11′-tetrahydro-3′H,4H,7′H-spiro[isoxazole-5,6′-[2,7]methanopyrido[1,2-a][1,4]diazonin]-12′-yl) carbonate] | 0.995 | 13200
CCCCCCCCCCOC(=O)Oc1c2n(cc(C(=O)NCc3ccc(F)cc3F)c1=O)[C@@H]1CN(C2=O)[C@@H](C)CC[C@]12CC(OC)=NO2 [Example 140, decyl ((3′S,5S,7′R)-10′-((2,4-difluorobenzyl)carbamoyl)-3-methoxy-3′-methyl-1′,11′-dioxo-1′,4′,5′,11′-tetrahydro-3′H,4H,7′H-spiro[isoxazole-5,6′-[2,7]methanopyrido[1,2-a][1,4]diazonin]-12′-yl) carbonate] | 3.36 | 15900
CCCCCCCCCCCCOC(=O)Oc1c2n(cc(C(=O)NCc3ccc(F)cc3F)c1=O)[C@@H]1CN(C2=O)[C@@H](C)CC[C@]12CC(C)=NO2 [Example 141, (3′S,5S,7′R)-10′-((2,4-difluorobenzyl)carbamoyl)-3,3′-dimethyl-1′,11′-dioxo-1′,4′,5′,11′-tetrahydro-3′H,4H,7′H-spiro[isoxazole-5,6′-[2,7]methanopyrido[1,2-a][1,4]diazonin]-12′-yl dodecyl carbonate] | 2.64 | 16500
CCCCCCCCCCCCOC(=O)Oc1c2n(cc(C(=O)NCc3ccc(F)cc3F)c1=O)[C@@H]1CN(C2=O)[C@@H](C)CC[C@]12CC(OC)=NO2 [Example 142, (3′S,5S,7′R)-10′-((2,4-difluorobenzyl)carbamoyl)-3-methoxy-3′-methyl-1′,11′-dioxo-1′,4′,5′,11′-tetrahydro-3′H,4H,7′H-spiro[isoxazole-5,6′-[2,7]methanopyrido[1,2-a][1,4]diazonin]-12′-yl dodecyl carbonate] | 3.64 | 36400
CCCCCCCCCCCCCCCCOC(=O)Oc1c2n(cc(C(=O)NCc3ccc(F)cc3F)c1=O)[C@@H]1CN(C2=O)[C@@H](C)CC[C@]12CC(C)=NO2 [Example 144, (3′S,5S,7′R)-10′-((2,4-difluorobenzyl)carbamoyl)-3,3′-dimethyl-1′,11′-dioxo-1′,4′,5′,11′-tetrahydro-3′H,4H,7′H-spiro[isoxazole-5,6′-[2,7]methanopyrido[1,2-a][1,4]diazonin]-12′-yl hexadecyl carbonate] | 6.9 | ≥ 50000
CCCCCCCCCCCCCCCCOC(=O)Oc1c2n(cc(C(=O)NCc3ccc(F)cc3F)c1=O)[C@@H]1CN(C2=O)[C@@H](C)CC[C@]12CC(OC)=NO2 [Example 145, (3′S,5S,7′R)-10′-((2,4-difluorobenzyl)carbamoyl)-3-methoxy-3′-methyl-1′,11′-dioxo-1′,4′,5′,11′-tetrahydro-3′H,4H,7′H-spiro[isoxazole-5,6′-[2,7]methanopyrido[1,2-a][1,4]diazonin]-12′-yl hexadecyl carbonate] | 5.93 | ≥ 50000
CCCCCCCCCCCCCCCCCCOC(=O)Oc1c2n(cc(C(=O)NCc3ccc(F)cc3F)c1=O)[C@@H]1CN(C2=O)[C@@H](C)CC[C@]12CC(C)=NO2 [Example 146, (3′S,5S,7′R)-10′-((2,4-difluorobenzyl)carbamoyl)-3,3′-dimethyl-1′,11′-dioxo-1′,4′,5′,11′-tetrahydro-3′H,4H,7′H-spiro[isoxazole-5,6′-[2,7]methanopyrido[1,2-a][1,4]diazonin]-12′-yl octadecyl carbonate] | 7.56 | ≥ 50000
